Experiments:
Assay in all cases: relative viability (nuclei count vs DMSO), 5 days (fraction); higher = more cells survive
[1] = compound: CC(C)(C)c1nc(-c2cccc(NS(=O)(=O)c3c(F)cccc3F)c2F)c(-c2ccnc(N)n2)s1 [Dabrafenib] + CC(=O)Nc1cccc(-n2c(=O)n(C3CC3)c(=O)c3c(Nc4ccc(I)cc4F)n(C)c(=O)c(C)c32)c1 [Trametinib] (partner 0.02 µM)
Method in brief: (§1)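 Each reported value is a median over duplicate plates. It expresses relative viability: treated-well nuclei count divided by vehicle-well nuclei count. Lung cancer cell lines in 1536-well plates were dosed by pin tool a day after seeding, alone with one drug or with a fixed anchor-drug dose plus five library-drug doses (not always all listed) in √10 steps, and nuclei were counted after 5 days.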

[2] = compound: NC(=O)c1ccc(N(C(N)=O)c2c(F)cccc2F)nc1-c1ccc(F)cc1F [VX-702] + CC1(C)CCC(c2ccc(Cl)cc2)=C(CN2CCN(c3ccc(C(=O)NS(=O)(=O)c4ccc(N[C@H](CCN5CCOCC5)CSc5ccccc5)c(S(=O)(=O)C(F)(F)F)c4)cc3)CC2)C1 [Navitoclax] (partner 0.5 µM)
Method in brief: as §1

[3] = compound: CC(C)(C)c1nc(-c2cccc(NS(=O)(=O)c3c(F)cccc3F)c2F)c(-c2ccnc(N)n2)s1 [Dabrafenib]
Method in brief: (§2)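 Viability here means nuclei in treated wells divided by nuclei in vehicle wells, reported as the median across plates. Only plates with control CV below 25% and at least one doubling passed. Lung cancer cell lines in 1536-well plates were exposed to five √10-spaced library-drug doses for 5 days and counted from 4× Hoechst images in MetaXpress.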

[4] = compound: NC(=O)c1ccc(N(C(N)=O)c2c(F)cccc2F)nc1-c1ccc(F)cc1F [VX-702]
Method in brief: as §2

| Cell Line | relative viability ([1]; first compound 0.003 µM) | relative viability ([1]; first compound 0.009487 µM) | relative viability ([1]; first compound 0.03 µM) | relative viability ([1]; first compound 0.09487 µM) | relative viability ([1]; first compound 0.3 µM) | relative viability ([2]; first compound 0.02 µM) | relative viability ([2]; first compound 0.2 µM) | relative viability ([2]; first compound 0.6325 µM) | relative viability ([2]; first compound 2 µM) | relative viability ([3]; 0.003 µM) | relative viability ([3]; 0.009487 µM) | relative viability ([3]; 0.03 µM) | relative viability ([3]; 0.09487 µM) | relative viability ([3]; 0.3 µM) | relative viability ([4]; 0.02 µM) | relative viability ([4]; 0.2 µM) | relative viability ([4]; 0.6325 µM) | relative viability ([4]; 2 µM) |
| --- | --- | --- | --- | --- | --- | --- | --- | --- | --- | --- | --- | --- | --- | --- | --- | --- | --- | --- |
| LXF-289 | 0.677 | 0.653 | 0.711 | 0.672 | 0.733 | 1 | 0.957 | 0.935 | 0.961 | 0.923 | 1 | 1.16 | 0.944 | 1.14 | 1.01 | 1.01 | 1.08 | 1.02 |
| NCI-H23 | – | 0.425 | 0.364 | 0.34 | 0.508 | 0.701 | 0.798 | 0.805 | 0.933 | – | 0.913 | 0.85 | 0.642 | 0.919 | 1.07 | 0.87 | 1.1 | 1.16 |
| NCI-H358 | 0.109 | 0.116 | 0.159 | 0.162 | 0.178 | – | – | – | – | – | 1.14 | 0.932 | 1.03 | 1.17 | 0.965 | 0.857 | 0.916 | 1.1 |
| NCI-H522 | – | 0.829 | 0.753 | 0.682 | 0.792 | – | – | – | – | – | 1.2 | 1 | 0.97 | 1.07 | 0.989 | 0.982 | 0.928 | 0.992 |
| NCI-H650 | – | 0.913 | 1.01 | 0.942 | 1.04 | – | – | – | – | – | 1.17 | 0.708 | 0.575 | 0.564 | 1.04 | – | 1.07 | 1.24 |
| NCI-H661 | 0.562 | 0.527 | 0.59 | 0.556 | 0.568 | – | – | – | – | 0.988 | 0.967 | 0.94 | 0.986 | 0.958 | 1.02 | 0.98 | 1.04 | 1.1 |
| NCI-H1299 | – | – | – | – | – | 1.1 | 1.08 | 1.07 | 1.15 | 0.991 | 0.988 | 0.963 | 0.92 | 0.842 | 1.09 | 0.994 | 1.07 | 1.12 |
| NCI-H1563 | – | – | – | – | – | – | – | – | – | 0.971 | 1.01 | 0.815 | 0.988 | 1.04 | 0.991 | 1.06 | 0.976 | 1.07 |
| NCI-H1623 | – | – | – | – | – | – | – | – | – | – | 0.969 | 0.924 | 1.03 | 1.13 | 0.834 | 0.943 | 1.02 | 0.905 |
| NCI-H1648 | 0.457 | 0.524 | – | 0.425 | 0.585 | – | – | – | – | 1.02 | 0.861 | 0.814 | 1.12 | 1.17 | 0.926 | 0.877 | 0.688 | 0.63 |
| NCI-H1703 | – | – | – | – | – | 1.01 | 1.35 | 1.08 | 1.47 | 1 | 1.12 | 0.887 | 0.843 | 1.14 | 0.936 | 0.91 | 0.849 | 1.21 |
| NCI-H2342 | 0.808 | 0.79 | 0.76 | 0.866 | 0.927 | – | – | – | – | 0.864 | 0.988 | 0.856 | 1.06 | 1.1 | 0.987 | 1.07 | 0.903 | 1.09 |

— the supplement of paper PMC10307832
